Results reported in patent publication US10111877B2, “Modulators of androgen synthesis” (Tangent Reprofiling Limited, priority 2012, dated 2018).

Tests used:
A549 cells = assay: Cell growth inhibition, lysed cell LDH assay, lung cancer cell line; assay type: cell-based; details: A549; 50 μM Risperidone and/or 50 μM CLA, 1 μM Testosterone (T) where added; 96 hours
Description: To determine whether Risperidone alone, or in combination with CLA could inhibit cell growth of cells taken from a lung cancer cell line overexpressing HSD10, A549 cells were seeded at a density of 2,000 cells per well in a 96 well plate, and incubated at 37° C., 5% CO2 for 48 hours in standard growth media (DMEM nutrient media, 10% Fetal Calf Serum, 2 mM L-Glutamine). The media was then removed by pipette and replaced with the appropriate drug treatment as follows: 50 μM Risperidone in A459 treatment media (DMEM nutrient media, 125 uM fatty acid free BSA, 2 mM L-Glutamine); 50 μM CLA in A459 treatment media; 50 μM Risperidone and 50 μM CLA in A459 treatment media; 50 μM Risperidone and 1 μM Testosterone in A459 treatment media; 50 μM Risperidone, 50 μM CLA, and 1 μM Testosterone in A459 treatment media. After incubation in the drug treatment for 96 hours at 37° C., 5% CO2, the supernatant was removed from all wells of cells, and cells washed with 200 μL PBS.
After removal of the PBS from the cell cultures described above, cell number was determined using a lysed cell LDH assay. Cells were lysed with 0.9% Triton-X in PBS for 2 hours at 37° C., 5% CO2 and 50 μL of this cell lysate was transferred to a fresh 96 well plate. About 50 μL of CytoTox 96 assay reagent was added to the transferred cell lysate and this mixture was incubated at room temperature in the dark for 20 minutes. After the addition of 50 μL stop reagent, the optical absorbance was determined for each incubated mixture at 492 nm. The percentage cell number was calculated by normalizing the experimental counts, where 100% is set to cells receiving no drug treatment, and 0% is set to readings from wells containing no cells. The mean and standard error was calculated from at least 3 wells.

BxPC-3 cells = assay: Resazurin-based cell viability assay, pancreatic cancer cell line; details: 72 hours, combination equimolar, 100% = no drug, 0% = Paclitaxel
Description: To determine whether Risperidone alone, or in combination with CLA could inhibit cell growth of cells taken from a pancreatic cancer cell line overexpressing HSD10, a resazurin-based cell viability assay was conducted on Bx-PC3 cells.
BxPC-3 cells are from a cell line derived from a human pancreatic adenocarcinoma and are known to overexpress HSD10. BxPC-3 cells were seeded at a density of 4,000 cells per well in a 384 well plate, and incubated at 37° C., 5% CO2 for 24 hours in standard growth media (RPMI nutrient media, 5% heat-inactivated Fetal Calf Serum, 2 mM L-Glutamine). The media was then removed by pipette and replaced with 50 μL BxPC-3 treatment media comprising 125 μM fatty acid-free BSA, 2 mM L-Glutamine and one of the following drug treatments: 0.1 μM, 2 μM, or 50 μM Risperidone; 0.1 μM, 2 μM, or 50 μM CLA; or 0.1 μM, 2 μM, or 50 μM of Risperidone and CLA (in equimolar amounts). After incubation in the drug treatment for 72 hours at 37° C., 5% CO2, viable cell number was determined using a resazurin-based cell viability assay (PRESTOBLUE®; Invitrogen, Carlsbad, Calif.). To each well, 7 μL of PRESTOBLUE® reagent was added and the plates incubated for 60 minutes at 37° C., 5% CO2. After incubation, the fluorescence intensity of each well was determined using a microplate reader by excitation and 570 nm and recording emission at 600 nm. The percentage of viable cell number was calculated by normalizing the experimental fluorescence intensity, where 100% is set to cells receiving no drug treatment (cells metabolizing at optimal rate), and 0% is set to readings from cells treated with Paclitaxel (cells not metabolizing at all due to their destruction by anti-cancer drug). A value under 50% could be considered a useful indication of potential efficacy.

SMILES: CCCCCC/C=C/C=C\CCCCCCCC(=O)O [CLA, 9Z, 11E conjugated Linoleic acid]
- Percentage of Lysed Cells (A549 cells): 4.5 ± 0.3%
- percentage of viable cell number (BxPC-3 cells; 0.1 uM): 103%
- percentage of viable cell number (BxPC-3 cells; 2 uM): 71%
- percentage of viable cell number (BxPC-3 cells; 50 uM): 119%
